Where two headings read alike, the source gives them in different places. Marks after values point to notes of the source that are not given here.
Columns and labels:
[1] = Bioavailability / pharmacokinetic study in male rats (IV and PO); assay type: in vivo, rat; conditions: plasma; for Vd: read-out: Vdss
Protocol: Example 8 was formulated in 0.9% w/v saline pH 4 (adjusted with 1M HCl) for IV dosing. The formulation was dosed at 2 mg/kg by femoral catheter to two male rats each (170-250 g). Jugular vein catheter serial blood samples were taken at 0.033, 0.083, 0.167, 0.5, 1, 2, 4, 8, and 24 hrs post-dose. For PO dosing, Example 8 was formulated in deionized water pH 4 (adjusted with 1M HCl) and dosed at 5 mg/kg by oral gavage to two male rats each (170-250 g). Serial blood samples were taken by jugular vein catheter at 0.25, 0.5, 1, 1.5, 2, 3, 4, 8, and 24 hrs post dose. Plasma samples were generated from blood using low speed centrifugation. […] The samples and standards were extracted by precipitation with two volumes of acetonitrile followed by centrifugation. […] Where appropriate, measured and not nominal doses were used to calculate bioavalability.

[2] = as above; assay type: in vivo; conditions: Example 7 when dosed as payload, male rat
Human Arginase 2 = Human Arginase 2 (Homo sapiens (Human), UniProt P78540); assay: Human Arginase 2 enzyme inhibition (thioarginine/DTNB absorbance assay); assay type: biochemical; conditions: recombinant enzyme 5 nM, 0.5 mM thioarginine premix, 60 min
Protocol: (§1) The thiol group was detected with Ellman's reagent, 5,5′-dithiobis(2-nitrobenzoic acid) (DTNB). DTNB reacts with the thiol to give the mixed disulfide and 2-nitro-5-thiobenzoic acid (TNB) which is quantified by the absorbance of the anion (TNB^2−) at 412 nm.
(§2) The assays were run in clear 384 well plates (Greiner cat no: 781101). […] Two pre-mixes were prepared from reagents thawed immediately before addition to assay plates. Pre-mix one comprised human Arginase 1 or human Arginase 2, at a final concentration of 5 nM and 0.5 mM DTNB in assay buffer, 45 mM HEPES pH7.5, brij 35, 0.045% (w/v) and 100 μM MnCl2. Pre-mix two comprised freshly thawed 0.5 mM thioarginine in assay buffer.
(§3) Assay plates were centrifuged prior to reading absorbance at 412 nm in a Pherastar multi-mode plate reader to collect data at time point 0 (T0). The plates were incubated at room temperature for 60 min prior to reading again to collect data at time point 1 (T1). Data is derived by subtracting the A412 signal measured at T0 (time point 0) from that measured at T1 (time point 1). The data was transformed to % effect using the equation: Compound % effect=100*[(X−min)/(max−min)], where X represents the normalized value for the compound based on the Min (vehicle) and Max (reference compound) inhibition control.

[3] = Interconversion of Compound B to Compound A observed by NMR; assay type: physicochemical
Description: Compound B (Example 19) was obtained by the intramolecular cyclization of Example 9 (Compound A) via an interconversion process. Furthermore, interconversions between Compound A (Example 9) and Compound B were observed under various conditions. For example, Compound B was converted to Compound A in the presence of water and such conversion was proportional to the concentration of water in the solvent. […] In d6-DMSO, compound B predominates, while there is a proportional increase in compound A with increase in D2O concentration. The proportion of compound A relative to compound B in 100% D2O reaches approximately 90%. Furthermore, Compound B was converted to Compound A under acidic condition.

Human Arginase 1 = Human Arginase 1 (Homo sapiens (Human), UniProt P05089); assay: Human Arginase 1 enzyme inhibition (thioarginine/DTNB absorbance assay); assay type: biochemical; conditions: recombinant enzyme 5 nM, 0.5 mM thioarginine premix, 60 min
Protocol: as §1, §2, §3

[4] = pro-drug itself, observed when dosed as pro-drug, male rat, IV 2 mg/kg
[5] = pro-drug itself, observed when dosed as pro-drug, male rat, PO 5 mg/kg

Sequence of Human Arginase 2 (P78540 23-354): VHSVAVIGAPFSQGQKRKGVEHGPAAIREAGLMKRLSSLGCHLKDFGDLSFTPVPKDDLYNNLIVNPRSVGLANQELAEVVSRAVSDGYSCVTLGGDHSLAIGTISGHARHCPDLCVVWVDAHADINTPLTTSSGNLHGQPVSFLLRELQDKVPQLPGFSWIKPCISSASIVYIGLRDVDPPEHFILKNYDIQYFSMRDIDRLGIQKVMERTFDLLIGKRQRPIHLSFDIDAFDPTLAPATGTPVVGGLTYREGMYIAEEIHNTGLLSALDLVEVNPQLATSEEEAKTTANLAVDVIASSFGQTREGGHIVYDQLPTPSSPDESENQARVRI
Sequence of Human Arginase 1 (P05089 whole entry): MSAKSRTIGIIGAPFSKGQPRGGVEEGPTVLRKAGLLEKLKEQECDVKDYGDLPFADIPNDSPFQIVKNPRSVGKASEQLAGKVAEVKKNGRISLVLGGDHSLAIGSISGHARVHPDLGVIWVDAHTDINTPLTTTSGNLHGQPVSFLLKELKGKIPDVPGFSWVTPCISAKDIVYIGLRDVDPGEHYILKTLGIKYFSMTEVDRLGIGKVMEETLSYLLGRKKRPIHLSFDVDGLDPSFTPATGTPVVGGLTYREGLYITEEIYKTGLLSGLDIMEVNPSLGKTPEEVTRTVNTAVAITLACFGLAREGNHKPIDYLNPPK

SMILES | clearance ([1]; male, rat, iv) | Vd ([1]; male, rat, iv) | Cl (mL/min/kg) [2] | Vdss (L/kg) [2] | IC50 (Human Arginase 2) | conversion to compound A under acidic condition ([3]; compound B in 0.1 M DCl in D2O) | proportion of compound A relative to compound B ([3]; compound B in 100% D2O) | clearance [1, 4] | Vd [1, 4] | AUC [1, 5] | Cmax [1, 5] | Tmax [1, 5] | bioavailability ([1]; pro-drug itself, observed when dosed as pro-drug, male rat, PO 5 mg/kg vs IV 2 mg/kg) | IC50 (Human Arginase 1)
N[C@H]1CN[C@@](CCCCB(O)O)(C(=O)O)C1 [Example 7, (2R,4R)-4-amino-2-(4-boronobutyl)pyrrolidine-2-carboxylic acid] | 8.9 mL/min/kg | 0.26 L/kg | 8.90 * mL/min/kg | 0.26 * L/kg |  |  |  |  |  |  |  |  |  | 
CC(C)[C@H](N)C(=O)N[C@H]1CN[C@]2(CCCCB(O)OC2=O)C1 [Example 19, (S)-2-amino-N-((3R,5R)-8-hydroxy-6-oxo-7-oxa-1-aza-8-boraspiro[4.7]dodecan-3-v1)-3-methylbutanamide] |  |  |  |  | 280 nM | almost complete conversion to compound A | approximately 90% | 36.8 mL/min/kg | 0.2 L/kg | 0.21 µM·h | 330 nM | 15 min | 2.5% | 220 nM

Reference: patent publication US11420984B2, “Arginase inhibitors and methods of use thereof” (AstraZeneca AB, priority 2018, dated 2022)
